# Test results reported in patent US9737552B2, “Treatment of cognitive impairment in a subject with a neurological autoimmune disease” (The Johns Hopkins University, priority 2010, dated 2017).
# Read-outs that look alike come from different tables or passages of the source.
# How the values were obtained:
# EAE mice [1] = assay: EAE disease score in MOG35-55 immunized mice; assay type: in vivo; settings: 100 mg/kg daily i.p. from immunization until sacrifice; vs Control mice
# Procedure: The effects of GCPII inhibition were tested on an animal model of multiple sclerosis (experimental autoimmune encephalomyelitis, or “EAE”). To induce EAE, mice were given two 50 μL subcutaneous flank injections of myelin oligodendrocyte glycoprotein 35-55 peptide fragment (MOG35-55) dissolved in 50 μL PBS emulsified in 50 μL IFA supplemented with 400 μg M. tuberculosis H37Ra, at a final concentration of 100 μg MOG35-55 per 100 μL total volume. At the time of MOG immunization and 2 days later, all EAE mice were administered intraperitoneal injections of 300 ng pertussis toxin in 100 μL PBS. Immunized mice were treated with either 2-PMPA or a vehicle control for the duration of the experiment. Vehicle (50 mM HEPES buffer) or 2-PMPA (100 mg/kg in vehicle at a pH of 7.4) was delivered daily via 0.1 mL intraperitoneal injections from the time of EAE immunization until sacrifice.
# EAE mice [2] = assay: Barnes maze testing in EAE mice; assay type: in vivo
# Procedure: To measure cognitive function in EAE mice, Barnes maze testing was conducted using the immunized mice, beginning approximately 4 weeks post-immunization. […] Animals were trained on the Barnes maze (AccuScan Instruments, Columbus, Ohio) for 4 trials per day (inter-trial interval >30 minutes) for 4 consecutive days. Briefly, mice were placed in the center of the maze platform under an opaque enclosed 3″×5″× container. After 15 seconds the container was removed and the mice were free to move in the maze. A target box was placed under 1 of the 40 holes around the maze perimeter, and the location of the target box, along with the location of 4 equally spaced polarizing visual cues and one lamp, remained the same throughout all trials. Mice were given up to 3 minutes to locate and enter the target box, and were gently guided into the target box if it was not found within the 3 minute limit. Following entry into the target box, the box was covered and the mouse remained in the box for 30 seconds before transfer to a holding cage. Paths were recorded and latency to the target hole, path efficiency, speed, and directional times were calculated using ANY-maze software (Stoelting, Wood Dale, Ill.).
# EAE mice [3] = assay: Fear conditioning test in EAE mice; assay type: in vivo
# Procedure: To measure fear memory and amygdala function in EAE mice, fear conditioning tests were performed. Following the Barnes maze testing, animals were given 1-2 weeks rest then subjected to fear conditioning. Briefly, animals were placed in a fear conditioning chamber for 240 seconds on 3 consecutive days. On day 1, a 2000 Hz tone was played for 28 seconds (seconds 180-208), immediately followed by a 2 second scrambled footshock (seconds 208-210). On day 2, animals were placed back in the same testing environment, but neither sound nor shock was administered. On days 3 and 5, mice were placed in a novel wooden box inside the fear conditioning chamber, and a 2000 Hz tone was played for 120 seconds (seconds 121-240). The duration of freezing behavior on each day was measured using FreezeScan software (Clever Sys Inc., Reston, Va.).
# EAE mice [4] = system: EAE mice
# Procedure: A separate cohort of 2-PMPA and Control EAE mice (n=6-7) were tested on the elevated plus maze 27 days after disease induction. Mice were placed in the center of the maze and given 5 minutes to freely explore the maze. Time spent in open and closed arms of the maze were tracked using ANY-maze software (Stoelting, Wood Dale, Ill.).
# GCPII = assay: Mass spectrometry of NAA and NAAG in post-mortem brains of EAE mice; assay type: in vivo; settings: Mean±SEM, 50 days after EAE immunization
# Procedure: (§1) To determine whether GCPII inhibition altered the levels of the enzyme's substrate (NAAG) or product (NAA), mass spectrometry was conducted in post-mortem brains of EAE mice either treated with 2-PMPA or a vehicle control. Animals were sacrificed by cervical dislocation 50 days after EAE immunization. Hippocampus, frontal lobe, and cerebellum structures were dissected, and NAA, NAAG, and 2-PMPA concentrations were measured via mass spectrometry. Briefly, NAAG and NAA in brain tissue homogenates were separated on a Waters Atlantis ODS column. NAA, NAAG, and the internal standard were monitored by tandem mass spectrometry with electrospray negative ionization. Linear calibration curves were generated over the range of 5-5000 ng/mL and converted to μg/g. For determination of 2-PMPA, separations were achieved on a Waters XTerra MS C18 column. 2-PMPA and the internal standard were monitored by tandem mass spectrometry with electrospray negative ionization. Linear calibration curves were generated over the 1-100 ng/mL range and converted to μg/g.
# [5] = Mass spectrometry of 2-PMPA concentration in post-mortem brains of EAE mice; assay type: in vivo; settings: mouse, ip, Mean±SEM, 100 mg/kg daily i.p., sacrifice 50 days after immunization
# Procedure: as §1
smiles,measurement,setting,value
"O=C(O)CCC(CP(=O)(O)O)C(=O)O (centres unmarked) [2-PMPA, 2-(phosphonomethyl)pentanedioic acid]","Disease severity and progression, as measured by EAE disease scores",EAE mice [1],did not differ
same,"Primary latency, total latency and path efficiency on the first two days of Barnes maze testing","EAE mice [2]; 100 mg/kg daily i.p., vs vehicle",equal between groups
same,"Path efficiency, first trial of day 4 compared to baseline (day 1, trial 1)","EAE mice [2]; Mean±SEM, 100 mg/kg daily i.p., p=0.0029 vs Control",−0.7276±0.0295
same,"Primary latency, first trial of day 4 compared to baseline (day 1, trial 1)","EAE mice [2]; Mean±SEM, 100 mg/kg daily i.p., p=0.0072 vs Control",167.4±1.187
same,"Total latency, first trial of day 4 compared to baseline (day 1, trial 1)","EAE mice [2]; Mean±SEM, 100 mg/kg daily i.p., p=0.0171 vs Control",167.4±1.187
same,"Path efficiency, back-to-back trials on consecutive days (long-term memory)","EAE mice [2]; Mean±SEM, e.g. trial 4 of day 3 vs. trial 1 of day 4, p=0.020 vs controls",−0.1377±0.0937
same,"Total latency, back-to-back trials on consecutive days (long-term memory)","EAE mice [2]; Mean±SEM, e.g. trial 4 of day 3 vs. trial 1 of day 4, p=0.021 vs controls",13.14±7.69
same,Maximum speed in the maze,EAE mice [2]; vs control EAE group,No differences
same,Baseline freezing on Day 1,EAE mice [3]; Day 1,< 20%
same,Cued freezing behavior on Day 3,"EAE mice [3]; Day 3, vs control",No differences
same,Cued freezing in response to the 120 second tone on Day 5,"EAE mice [3]; Day 5, specifically in the last 60 seconds, vs control",increased cued freezing
same,Contextual freezing on Day 2,"EAE mice [3]; Mean±SEM, Day 2, % time freezing (FIG. 5 legend)",50.49±4.18
same,Time spent in the closed arms,EAE mice [4],224.2±10.07
same,Time spent in the open arms,EAE mice [4],34.10±9.22
same,NAAG concentration in the frontal cortex,GCPII; p=0.0002 vs control,32.91 ± 0.93 µg/g
same,NAAG concentration in the cerebellum,GCPII; p=0.0655 vs control,102.4 ± 2.3 µg/g
same,NAA in the hippocampus,GCPII; p=0.2895 vs control,985.0 ± 48.12 µg/g
same,NAA in the frontal cortex,GCPII; p=0.3035 vs control,1134 ± 45.65 µg/g
same,NAA in the cerebellum,GCPII; p=0.3053 vs control,899.3 ± 19.66 µg/g
same,NAAG concentration in the hippocampus,GCPII; p=0.8575 vs control,54.98 ± 2.037 µg/g
same,concentration at 50 days after EAE immunization,"[5]; cerebellum, read-out: 2-PMPA in the cerebellum",832 ± 56 ng/g
same,concentration at 50 days after EAE immunization,"[5]; frontal cortex, read-out: 2-PMPA in the frontal cortex",1190 ± 222 ng/g
same,concentration at 50 days after EAE immunization,"[5]; hippocampus, read-out: 2-PMPA in the hippocampus",835 ± 264 ng/g
